Experimental findings from ChEMBL document CHEMBL1135520, “Rational design and synthesis of a novel thyroid hormone antagonist that blocks coactivator recruitment” (J Med Chem, 2002) are described below.

The target of assay [1] is T1, Thyroid hormone receptor beta (Homo sapiens, UniProt P10828).
T1 sequence (P10828 whole entry): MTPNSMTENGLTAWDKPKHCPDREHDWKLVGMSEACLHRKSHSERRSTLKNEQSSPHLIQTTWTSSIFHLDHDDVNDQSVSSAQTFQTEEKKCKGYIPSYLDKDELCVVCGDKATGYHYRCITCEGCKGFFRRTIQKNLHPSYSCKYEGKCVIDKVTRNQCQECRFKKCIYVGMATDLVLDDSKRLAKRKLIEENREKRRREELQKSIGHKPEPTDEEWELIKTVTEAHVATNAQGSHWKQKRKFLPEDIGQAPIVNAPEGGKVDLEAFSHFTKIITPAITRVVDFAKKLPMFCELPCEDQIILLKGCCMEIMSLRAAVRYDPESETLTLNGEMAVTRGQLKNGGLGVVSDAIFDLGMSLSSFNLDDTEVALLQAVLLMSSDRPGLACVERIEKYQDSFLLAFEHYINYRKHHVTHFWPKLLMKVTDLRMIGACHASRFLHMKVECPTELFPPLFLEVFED
As to the kind of experiment: Half-maximum activation of human Thyroid hormone receptor beta 1 (hTRbeta1).

The target in assay [2] is T2, Thyroid hormone receptor alpha (Homo sapiens, UniProt P10827).
T2 sequence (P10827 whole entry): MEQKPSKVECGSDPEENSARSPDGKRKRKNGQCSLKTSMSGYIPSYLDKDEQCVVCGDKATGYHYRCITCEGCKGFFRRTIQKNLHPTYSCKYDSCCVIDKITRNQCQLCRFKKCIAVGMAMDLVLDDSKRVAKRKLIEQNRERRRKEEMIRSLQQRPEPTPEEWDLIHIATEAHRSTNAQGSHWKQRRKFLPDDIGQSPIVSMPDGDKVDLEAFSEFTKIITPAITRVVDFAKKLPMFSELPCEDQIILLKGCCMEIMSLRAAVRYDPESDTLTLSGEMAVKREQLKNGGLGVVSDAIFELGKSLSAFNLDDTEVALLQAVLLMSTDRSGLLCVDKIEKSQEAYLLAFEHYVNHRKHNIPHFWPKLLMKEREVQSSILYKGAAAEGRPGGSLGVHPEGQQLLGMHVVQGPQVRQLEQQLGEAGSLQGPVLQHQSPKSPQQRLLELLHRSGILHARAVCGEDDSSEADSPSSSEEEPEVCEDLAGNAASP
As to the kind of experiment: Half-maximum activation of human Thyroid hormone receptor alpha-1 (hTRalpha1).

Assay [3] concerns the target T1, Thyroid hormone receptor beta.
The target of assay [4] is T2, Thyroid hormone receptor alpha.

Consider `Cc1cc(OCC(=O)O)cc(C)c1Cc1cc(C#Cc2ccc([N+](=O)[O-])cc2)c(O)c(C(C)C)c1`, for which the concentration for half-maximal inhibition (IC50) in assay [1] came to 370 nM; in assay [2] it was 950 nM. Moreover, the Kd worked out at 20 nM in assay [3] and 93 nM in assay [4].

With `CCCCCc1ccc(C#Cc2cc(Cc3c(C)cc(OCC(=O)O)cc3C)cc(C(C)C)c2O)cc1`, a half-maximal effect in assay [1] (EC50) was put at 380 nM. Besides, the equilibrium dissociation constant (Kd) is 0.52 nM in assay [3] and 5.2 nM in assay [4].

Consider `Cc1cc(OCC(=O)O)cc(C)c1Cc1cc(C#Cc2ccc(N)cc2)c(O)c(C(C)C)c1`, for which the Kd in assay [3] amounted to 90 nM; in assay [4] it was 330 nM.

Compound `Cc1cc(OCC(=O)O)cc(C)c1Cc1cc(C#Cc2ccccc2)c(O)c(C(C)C)c1` displayed an EC50 in assay [1] of 500 nM. Moreover, the Kd in assay [3] was determined as 37 nM; in assay [4], 490 nM.

In the case of `Cc1cc(OCC(=O)O)cc(C)c1Cc1cc(-c2ccc([N+](=O)[O-])cc2)c(O)c(C(C)C)c1`, the half-maximal inhibitory concentration (IC50) in assay [1] stood at 680 nM; in assay [2] it was 5000 nM. Besides, the dissociation constant (Kd) in assay [3] is 35 nM; in assay [4], 200 nM.
